Structures are written as SMILES.

The test has as its target T1, human IL-17AA (Homo sapiens, UniProt Q16552).
T1 construct: host or cells: HEK (human embryonic kidney) cells
T1 sequence (Q16552 24-155): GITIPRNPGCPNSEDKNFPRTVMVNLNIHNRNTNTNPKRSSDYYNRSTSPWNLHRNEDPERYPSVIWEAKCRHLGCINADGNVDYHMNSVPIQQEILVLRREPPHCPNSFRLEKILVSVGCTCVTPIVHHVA
The test is described as follows: IL-8 release assay in human epithelial keratinocytes adult (HEKa). In kind it is cell-based. The following applies: HEKa cells, 3 ng/mL HEK-human IL-17AA + 10 ng/mL human TNFalpha; read-out: Rel EC50 IL-8 release assay. As to the method: Example 138: IL-8 Release Assay in Human Epithelial Keratinocytes Adult (HEKa)
Keratinocytes were seeded at 3500 cells/well in 384-well ViewPlates (Perkin Elmer) in Epilife medium (Thermo Fisher) containing human keratinocyte growth supplement (HKGS) without hydrocortisone and incubated in a humid incubator at 37° C. 5% CO2, overnight. The following day growth medium was removed and 25 μl fresh Epilife medium added. 75 nL test compound in 100% DMSO was added into each well reserved for test compounds, by the use of acoustic pipetting. The remaining wells received an equal volume of DMSO only, as vehicle control, or terfenadine in DMSO, as a positive control for any cytotoxic compounds. Subsequently, another 25 μL Epilife medium was added to each well. Finally, wells containing test compounds and wells prepared to yield maximum stimulation received […] of 9 ng/mL recombinant, human embryonic kidney cell (HEK)-derived human IL-17AA+30 ng/mL human TNF-alpha, in Epilife medium. Wells prepared to define 100% inhibition of IL-17 effects received 25 μL of 30 ng/mL human TNF-alpha alone, in Epilife medium. Final concentrations were 3 ng/mL HEK-human IL-17AA+10 ng/mL human TNFalpha (maximum stimulation) and 10 ng/mL human TNFalpha alone (100% inhibition, Emax), respectively. Cells were incubated for 68-72 hours in the incubator. IL-8 released from the cells was measured by the use of a commercial homogenous time-resolved fluorescence (HTRF) assay (CisBio). 2 μL cell culture supernatant was transferred to a 384-well Proxiplate. 5 μL HTRF reagent was added and the plates incubated sealed in the dark for 3-22 hours at room temperature. Time-resolved fluorescence was read at 665 vs 620 nm, with excitation at 320 nm, and IL-8 levels calculated as percent of controls. Reduction of the amount of secreted IL-8 indicates decreased IL-17 signaling. Concentration response curves were fitted by the use of a four-parameter logistic equation. Relative IC50 and Emax were reported from curves showing acceptable fit (r^2>0.9). Cytotoxicity was measured in the cell-containing Viewplates following addition of 7 μL PrestoBlue (Thermo Fisher) and incubation for 2.5-3 hours at room temperature, by measuring fluorescence at 615 nm (excitation at 535 nm). Fluorescence was directly proportional to the amount of metabolic activity. Reduction of fluorescence signal indicated cytotoxicity.
Compounds of the present invention were tested in the IL-8 release assay in human epithelial keratinocytes.
Compounds having a Relative EC50 of X; wherein X<100 nM; are indicated with *
Compounds having a Relative EC50 of X; wherein 100 nM<X<1000 nM; are indicated with **
Compounds having a Relative EC50 of X; wherein 1000 nM<X; are indicated with ***
As for `Cc1n[nH]c(C)c1-c1ccc(NC(=O)C(NC(=O)c2ccnn2C)[C@@H]2CCOc3ccccc32)cc1` (mixture of isomers) [Example 26, 1:3 mixture of N-[(1S)-1-[(4R)-chroman-4-yl]-2-[4-(3,5-dimethyl-1H-pyrazo 4-yl)anilino]-2-oxo-ethyl]-2-methyl-pyrazole-3-carboxamide and N-[(1R)-1-[(4R)-chroman-4-yl]-2-[4-(3,5-dimethyl-1H-pyrazol-4-yl)anilino]-2-oxo-ethyl]-2-methyl-pyrazole-3-carboxamide], the EC50 was more than 1 µM.

As to `Cc1n[nH]c(C)c1-c1ccc(NC(=O)C(NC(=O)c2ccnn2C(C)C(C)O)C(C2CC2)C2CC2)cc1` (mixture of isomers) [Example 161, N-[(1S)-1-(dicyclopropylmethyl)-2-[4-(3,5-dimethyl-1H-pyrazol-4-yl)anilino]-2-oxo-ethyl]-2-[(1S,25) and (1R,2R)-2-hydroxy-1-methyl-propyl]pyrazole-3-carboxamide], the EC50 was more than 1 µM.

On to `Cc1n[nH]c(C)c1-c1ccc(NC(=O)[C@@H](NC(=O)c2ccnn2C)C(C)CC(C)(C)C)cc1` (mixture of isomers) [Example 196], for which the EC50 was less than 0.1 µM.

Take `Cc1n[nH]c(C)c1-c1ccc(NC(=O)[C@@H](NC(=O)c2ccnn2C)C(C)C2CCCC2)cc1` (mixture of isomers) [Example 221]: the concentration for a half-maximal effect (EC50) was 0.1 to 1 µM.

On to `Cc1n[nH]c(C)c1-c1ccc(NC(=O)C(NC(=O)c2ccnn2C)C(C(F)(F)F)C(F)(F)F)cc1` (racemic) [Example 14], for which the EC50 is more than 1 µM.

Take `Cc1n[nH]c(C)c1-c1ccc(NC(=O)C(NC(=O)c2ccnn2C(C)C)C2CCC3(CC2)CC3)cc1` (racemic) [Example 20, N-[2-[4-(3,5-dimethyl-1H-pyrazol-4-yl)anilino]-2-oxo-1-spiro[2.5]octan-6-yl-ethyl]-2-isopropyl-pyrazole-3-carboxamide]: the half-maximal effective concentration (EC50) fell in the range of 0.1 to 1 µM.

On to `Cc1n[nH]c(C)c1-c1ccc(NC(=O)C(NC(=O)c2ccnn2C)C2CCC3(CC2)CC3)cc1` (racemic) [Example 21, N-[2-[4-(3,5-dimethyl-1H-pyrazol-4-yl)anilino]-2-oxo-1-spiro[2.5]octan-6-yl-ethyl]-2-methyl-pyrazole-3-carboxamide], for which the EC50 was 0.1 to 1 µM.

Consider `Cc1n[nH]c(C)c1-c1ccc(NC(=O)C(NC(=O)c2ccnn2C(C)C)C(C2CC2)C2CC2)cc1` (racemic) [Example 31, N-[1-(dicyclopropylmethyl)-2-[4-(3,5-dimethyl-1H-pyrazol-4-yl)anilino]-2-oxo-ethyl]-2-isopropyl-pyrazole-3-carboxamide], for which the EC50 was less than 0.1 µM.

In the case of `CCn1nccc1C(=O)NC(C(=O)Nc1ccc(-c2c(C)n[nH]c2C)cc1)C(C1CCC1)C1CCC1` (racemic) [Example 35, N-[1-[di(cyclobutyl)methyl]-2-[4-(3,5-dimethyl-1H-pyrazol-4-yl)anilino]-2-oxo-ethyl]-2-ethyl-pyrazole-3-carboxamide], the concentration for a half-maximal effect (EC50) is less than 0.1 µM.

For the molecule `Cc1n[nH]c(C)c1-c1ccc(NC(=O)C(NC(=O)c2ccnn2C(C)C)C(C2CCC2)C2CCC2)cc1` (racemic) [Example 38, N-[1-[di(cyclobutyl)methyl]-2-[4-(3,5-dimethyl-1H-pyrazol-4-yl)anilino]-2-oxo-ethyl]-2-isopropyl-pyrazole-3-carboxamide], the EC50 was less than 0.1 µM.

As to `Cc1n[nH]c(C)c1-c1ccc(NC(=O)C(NC(=O)c2ccnn2C)C2CCCC2C)cc1` (racemic) [Example 252, N-[2-[4-(3,5-dimethyl-1H-pyrazol-4-yl)anilino]-1-(2-methylcyclopentyl)-2-oxo-ethyl]-2-methyl-pyrazole-3-carboxamide], the half-maximal effective concentration (EC50) fell in the range of 0.1 to 1 µM.

Regarding `Cc1n[nH]c(C)c1-c1ccc(NC(=O)C(NC(=O)c2ccnn2C(C)C)C(C2CC(F)(F)C2)C2CC(F)(F)C2)cc1` (racemic) [Example 294, N-[1-[bis(3,3-difluorocyclobutyl)methyl]-2-[4-(3,5-dimethyl-1H-pyrazol-4-yl)anilino]-2-oxo-ethyl]-2-isopropyl-pyrazole-3-carboxamide], the concentration giving a half-maximal response (EC50) was 0.1 to 1 µM.

With `Cc1n[nH]c(C)c1-c1ccc(NC(=O)C(NC(=O)c2ccnn2C(C)C)C(C2CC2)C2CC2)cc1` (single isomer, unassigned) [Example 33, N-[1-(dicyclopropylmethyl)-2-[4-(3,5-dimethyl-1H-pyrazol-4-yl)anilino]-2 oxo-ethyl]-2-isopropyl-pyrazole-3-carboxamide], the 50% effective concentration (EC50) is more than 1 µM.

Consider `CCn1nccc1C(=O)NC(C(=O)Nc1ccc(-c2c(C)n[nH]c2C)cc1)C(C1CCC1)C1CCC1` (single isomer, unassigned) [Example 37, N-[1-[di(cyclobutyl)methyl]-2-[4-(3,5-dimethyl-1H-pyrazol-4-yl)anilino]-2-oxo-ethyl]-2-ethyl-pyrazole-3-carboxamide], for which the EC50 lay within 0.1 to 1 µM.

Turning to `Cc1n[nH]c(C)c1-c1ccc(NC(=O)C(NC(=O)c2ccnn2C(C)C)C(C2CCC2)C2CCC2)cc1` (single isomer, unassigned) [Example 40, N-[1-[di(cyclobutyl)methyl]-2-[4-(3,5-dimethyl-1H-pyrazol-4-yl)anilino]-2-oxo-ethyl]-2-isopropyl-pyrazole-3-carboxamide], the half-maximal effective concentration (EC50) was in the range of 0.1 to 1 µM.

Turning to `Cc1ncn(C)c1-c1ccc(NC(=O)C(NC(=O)OC(C)(C)C)C2CCC(F)(F)CC2)cc1` (single isomer, unassigned) [Example 85, tert-butyl N-[1-(4,4-difluorocyclohexyl)-2-[4-(3,5-dimethylimidazol-4-yl)anilino]-2-oxo-ethyl]carbamate], the half-maximal effective concentration (EC50) was more than 1 µM.

As to `Cc1ncn(C)c1-c1ccc(NC(=O)C(NC(=O)OC(C)(C)C)C2CCC(F)(F)CC2)cc1` (single isomer, unassigned) [Example 86, tert-butyl N-[1-(4,4-difluorocyclohexyl)-2-[4-(3,5-dimethylimidazol-4-yl)anilino]-2-oxo-ethyl]carbamate], the half-maximal effective concentration (EC50) was more than 1 µM.

On to `Cc1n[nH]c(C)c1-c1ccc(NC(=O)[C@@H](NC(=O)c2ccnn2C(C)CO)C2CCCCC2)cc1` (single isomer, unassigned) [Example 104], for which the EC50 was 0.1 to 1 µM.

`Cc1n[nH]c(C)c1-c1ccc(NC(=O)[C@@H](NC(=O)c2ccnn2C(C)CO)C2CCCCC2)cc1` (single isomer, unassigned) [Example 105]: the EC50 is 0.1 to 1 µM.

`Cc1n[nH]c(C)c1-c1ccc(NC(=O)[C@@H](NC(=O)c2ccnn2[C@@H](C)CO)C(C2CC2)C2CC2)cc1` (single isomer, unassigned) [Example 119]: the half-maximal effective concentration (EC50) is less than 0.1 µM.

As to `Cc1n[nH]c(C)c1-c1ccc(NC(=O)[C@@H](NC(=O)c2ccnn2C(C)CO)C(C2CCC2)C2CCC2)cc1` (single isomer, unassigned) [Example 123], the concentration for a half-maximal effect (EC50) was less than 0.1 µM.

In the case of `Cc1n[nH]c(C)c1-c1ccc(NC(=O)[C@@H](NC(=O)c2ccnn2C(C)CO)C(C2CCC2)C2CCC2)cc1` (single isomer, unassigned) [Example 124], the concentration for a half-maximal effect (EC50) is less than 0.1 µM.

In the case of `Cc1n[nH]c(C)c1-c1ccc(NC(=O)C(NC(=O)c2ccnn2CCC(C)O)C2CCCCCCC2)cc1` (single isomer, unassigned) [Example 142, N-[1-cyclooctyl-2-[4-(3,5 dimethyl-1H-pyrazol-4-yl)anilino]-2-oxo-ethyl]-2-(3-hydroxybutyl)pyrazole-3-carboxamide], the EC50 fell in the range of 0.1 to 1 µM.

Values taken from patent publication US11377425B1, “Small molecule modulators of IL-17” (LEO Pharma A/S, priority 2018, dated 2022).
